The test system of one experiment is A549. Kind of experiment: MTS cell number assay (CellTiter 96), NSCLC cells. Format: cell-based. To be noted: Homo sapiens, 1 mM, 72 hours, MTS method, read-out: Biodata extra A549, cell numbers as percentage of vehicle treated controls. How it is done: (§1) FIGS. 3A-3B. Metformin analogues inhibit survival of non-small cell lung cancer (NSCLC) (FIG. 3A) and melanoma cell lines (FIG. 3B). A549 (NSCLC) and MDA-MB-435 (melanoma) cells were cultured in medium containing 1% fetal bovine serum and increasing concentrations of metformin (MET) and analogues JD001-JD007 (0.1, 1 and 5 mM). After 3 days, MTS assay was performed. Survival is expressed as percentage of control defined at 100%.
(§2) Cells were incubated in the presence of vehicle, metformin or metformin analogues for 72 hours in their respective media. After treatment cell numbers were determined with the MTS method using the CellTiter 96 Aqueous Non-Radioactive Cell Proliferation Assay (Promega). Numbers express percentage of vehicle treated controls at 1 mM concentration metformin or metformin analogues (JD001-JD009). TNBC: Triple Negative Breast Cancer Cells, ER+BC: Estrogen receptor positive breast cancer.

The test system of another experiment is MCF-7 cells. Kind of experiment: Cell proliferation ELISA, BrdU colorimetric kit. Type of experiment: cell-based, human. To be noted: 0.1 mM and 1 mM, BrdU incorporation, 1% FBS, P<0.01. How it is done: FIGS. 6A-6C. […] Proliferation was assessed using cell proliferation ELISA, BrdU colorimetric kit (Roche). Cells were counted using a hemocytometer and plated. After 24 hrs, cells were treated with metformin and analogs JD003 and JD004 at 0.1 mM and 1 mM doses using phenol-red free medium with 1% FBS. After 48 hr, BrDU labeling solution was added and incubated for 24 h. Proliferation was assessed using BrDU incorporation by ELISA during DNA synthesis in proliferating cells. Data shown as % control (mean±SE) (n=3 experiments).
We hypothesize that metformin analogs can be prepared with enhanced anticancer activity and minimal non-target toxicity. […] Human pancreatic cancer cells PANC-1, were grown in DMEM with 2 mM glutamine, 1 mM sodium pyruvate, 100 units/mL penicillin, 100 μg/mL streptomycin and 10% FBS at 37 C in a humidified atmosphere with 10% CO2. Then, effects of treatment with metformin or analog JD003 on cell proliferation in vitro were tested. […] In contrast, minimal antiproliferative effects are detected in nonmalignant human epithelial cells. […]
Cell proliferation screening assays were done using cell proliferation ELISA, BrdU colorimetric kit (Roche). Cells were counted using a hemocytometer and plated in 96-well plates. […] Cell proliferation were quantitated based on measures of BrDU incorporation (by ELISA) during DNA synthesis in proliferating cells. […] Results were expressed as mean±SE. […]

The next experiment has as its system MDA-MB-435. The experiment is described as follows: MTS cell number assay (CellTiter 96), melanoma cells. To be noted: 1 mM, 72 hours, MTS method. Type of experiment: cell-based. How it is done:
as §1, §2

Another experiment concerns HMEC. The experiment is described as follows: MTS cell number assay (CellTiter 96), normal cells. Type of experiment: cell-based. To be noted: Homo sapiens, 1 mM, 72 hours, MTS method, read-out: Biodata Normal HMEC, cell numbers as percentage of vehicle treated controls. On the procedure: (§3) FIGS. 4A-4B. Effects of metformin and metformin analogues on normal cells. HMEC (FIG. 4A) and HUVEC (FIG. 4B) cells were plated in special media. After 24 hours, cells were treated with increasing concentrations of metformin and analogues JD001-JD009 (0.1, 1 and 5 mM). After 3 days, MTS assay was performed. Survival is expressed as percentage of vehicle treated control. Data represents at least two experiments.
(§4) The effects of compounds described herein (including embodiments) (e.g. metformin analogues) were determined on two types of normal nonmalignant human cells, human umbilical vein endothelial cells (HUVEC) and human mammary epithelial cells (HMEC). There were no significant biologic effects noted on exposure to the metformin analogues.
as §2
(Formazan colour is commonly taken as a measure of viable cells.)

A further experiment has as its system HUVEC. The experiment is described as follows: MTS cell number assay (CellTiter 96), normal cells. Type of experiment: cell-based. As to conditions: Homo sapiens, 1 mM, 72 hours, MTS method, read-out: Biodata Normal HUVEC, cell numbers as percentage of vehicle treated controls. How it is done: as §3, §4, §2
Another experiment deals with HCC1937. Kind of experiment: MTS cell number assay (CellTiter 96), TNBC cells. Type of experiment: cell-based. To be noted: 1 mM, 72 hours, MTS method. How it is done:
(§5) FIGS. 2A-2D. Metformin analogues inhibit growth/survival of triple negative breast cancer cells. MDA-MB-231 (FIG. 2A), HCC38 (FIG. 2B), HCC1937 (FIG. 2C) and HCC1806 (FIG. 2D) cells were cultured in medium containing 1% fetal bovine serum and increasing concentrations of metformin and analogues JD001-JD009 (0.1, 1 and 5 mM). After 3 days, MTS assay was performed. The percentage of surviving cells relative to controls, defined as 100% survival, was determined by the MTS assay.
as §2

The next experiment concerns MDA-MB-231. The experiment is described as follows: MTS cell number assay (CellTiter 96), TNBC cells. As to conditions: Homo sapiens, 1 mM, 72 hours, MTS method, read-out: Biodata TNBC MDA-MB-231, cell numbers as percentage of vehicle treated controls. Format: cell-based. How it is done:
as §5, §2

In the next experiment the test system is MCF7. Kind of experiment: MTS cell number assay (CellTiter 96), ER+ breast cancer cells. Type of experiment: cell-based. As to conditions: Homo sapiens, 1 mM, 72 hours, MTS method, read-out: ER+ BC MCF7, cell numbers as percentage of vehicle treated controls. On the procedure:
FIG. 1. Metformin analogues inhibit growth/survival of ER+ MCF7 breast cancer cells. MCF7 cells were cultured in medium containing different concentrations of metformin and analogues (0.1, 1 and 5 mM). After 3 days, the percentage of surviving cells relative to controls, defined as 100% survival, was determined by the MTS assay. Data represents three independent experiments.
Compounds described herein (e.g. metformin derivatives and/or analogues) were tested in human MCF-7 breast cancer cells, a standard ERalpha-positive model of breast malignancy (FIG. 1), and in four different cell lines classified as TNBC, including MDA-MB-231, HCC1937, HCC38 and HCC1806 (FIGS. 2A-2D). […] Experiments were also performed in: 1) a non-small cell lung cancer cell line that is known to be resistant to standard chemotherapy (A549); and 2) a melanoma-like cell model (MDA-MB-435). To find if analogues have effects on normal cells compounds were tested in two different types of cells, human umbilical vein endothelial cells (HUVEC) and human mammary epithelial cells (HMEC). The effects of metformin (MET) were compared with compounds JD001-JD009.
as §2

For a further experiment, the system named is PANC-1 cells. The experiment is described as follows: Pancreatic cancer cell proliferation in vitro (cell counts). Format: cell-based, human. To be noted: 0.01, 0.1 and 1 mM, 72 hrs, 1% FBS, P<0.01, hydrochloride. On the procedure:
FIG. 5. […] Cells were counted and plated. At 24 hrs after plating, cells were treated with metformin and JD003 at 0.01 mM, 0.1 mM, and 1 mM concentrations using medium with 1% FBS. After 72 hrs, cell proliferation was quantitated based on cell counts. Experiments were done 3-times, with results expressed as percent control (mean±SE).
We hypothesize that metformin analogs can be prepared with enhanced anticancer activity and minimal non-target toxicity. […] Human pancreatic cancer cells PANC-1, were grown in DMEM with 2 mM glutamine, 1 mM sodium pyruvate, 100 units/mL penicillin, 100 μg/mL streptomycin and 10% FBS at 37 C in a humidified atmosphere with 10% CO2. Then, effects of treatment with metformin or analog JD003 on cell proliferation in vitro were tested. […] To find if analogs may have deleterious effects on normal human cells, we compared the cellular activity of metformin with that of analogs JD003 and JD004 using a pair of human breast epithelial cells. These included human mammary epithelial cells (HMEC) and MCF-7 tumor cells (MCF-7). […] In contrast, minimal antiproliferative effects are detected in nonmalignant human epithelial cells.

Experiment [1] relates to triple-negative breast cancer cell lines. As to conditions: literature refs (2,3); cited from earlier work.
The test system of a further experiment is HCC38. Kind of experiment: MTS cell number assay (CellTiter 96), TNBC cells. Type of experiment: cell-based. As to conditions: 1 mM, 72 hours, MTS method. On the procedure: as §5, §2
In the next experiment the test system is HCC1806. The experiment is described as follows: MTS cell number assay (CellTiter 96), TNBC cells. To be noted: 1 mM, 72 hours, MTS method. Format: cell-based. How it is done:
as §5, §2

Experiment [2] relates to MIAPaCa-2 and PANC-1 cells xenografted in nude mice. To be noted: reported; cited from earlier work.

Entries after “also recorded” stand apart in the source; their conditions may differ. Where a name gives a salt, the structure may show the parent alone.

Regarding `CN1CCN(C(=N)NC(=N)N2CCN(C)CC2)CC1` [JD004, N-(Imino(4-methylpiperazin-1-yl)methyl)-4-methylpiperazine-1-carboximidamide hydro-chloride], the viability at 1000 µM amounted to 74.3% in the experiment with A549; 113% in the experiment on HMEC; 89.1% in the experiment on HUVEC; 89.2% with MDA-MB-231; 84.4% with MCF7. Further, the “Blocking proliferation of MCF-7 cells compared with metformin” value in the experiment on MCF-7 cells is “more effective in blocking proliferation of MCF-7 cells; also recorded: enhanced antiproliferative activity in breast cancer cells as compared to metformin”. Also, the “Biodata extra MDA-MB-435, cell numbers as percentage of vehicle treated controls” value with MDA-MB-435 is 59.6 percentage of vehicle treated controls. For the same molecule, the “Biodata TNBC HCC1937, cell numbers as percentage of vehicle treated controls” value in the experiment with HCC1937 is reported as 64 percentage of vehicle treated controls.

In the case of `N=C(NC(=N)N1CCOCC1)N1CCOCC1` [JD003, N-(Imino(morpholino)methyl)morpholine-4-carboximidamide hydrochloride], the “Inhibition of pancreatic cancer cell proliferation compared with metformin” value in the experiment on PANC-1 cells is given as “significantly greater inhibition of pancreatic cancer cell proliferation in vitro than parent compound metformin; also recorded: shows promise as a congener with more potent antitumor activity”. Moreover, the viability at 1000 µM with A549 stood at 98%; in the experiment on HMEC, 107%; in the experiment with HUVEC, 86.7%; with MDA-MB-231, 93.2%; with MCF7, 61.3%. The “Blocking proliferation of MCF-7 cells compared with metformin” value with MCF-7 cells (hydrochloride) was “more effective in blocking proliferation of MCF-7 cells; also recorded: enhanced antiproliferative activity in breast cancer cells as compared to metformin”. For the same molecule, the “Biodata extra MDA-MB-435, cell numbers as percentage of vehicle treated controls” value with MDA-MB-435 is reported as 50.4 percentage of vehicle treated controls. The “Biodata TNBC HCC1937, cell numbers as percentage of vehicle treated controls” value with HCC1937 is recorded as 37.8 percentage of vehicle treated controls.

`CN(C)C(=N)NC(=N)N` [Metformin (000), 1,1-dimethyl-biguanide hydrochloride, reference compound]: in experiment [1], the “Antitumor activity against triple-negative breast cancer cell lines” value is on record as “only at high millimolar concentrations”. For the same molecule, the viability at 1000 µM in the experiment with A549 amounted to 72.2%; in the experiment with HMEC, 99.8%; with HUVEC it was 83.9%; with MDA-MB-231, 110%; in the experiment on MCF7, 105%. Also, the “Biodata extra MDA-MB-435, cell numbers as percentage of vehicle treated controls” value in the experiment on MDA-MB-435 is listed as 77.7 percentage of vehicle treated controls. The “Biodata TNBC HCC1937, cell numbers as percentage of vehicle treated controls” value in the experiment on HCC1937 is reported as 92.9 percentage of vehicle treated controls. Besides, the “Biodata TNBC HCC38, cell numbers as percentage of vehicle treated controls” value with HCC38 is listed as 92.5 percentage of vehicle treated controls. The “Biodata TNBC HCC1806, cell numbers as percentage of vehicle treated controls” value in the experiment on HCC1806 is 90.2 percentage of vehicle treated controls. Further, the “Growth of xenografted pancreatic cancer cells” value in [2] is “significantly decrease growth”.

The values above are taken from patent US9862693B2, “Compounds and methods of treating cancer” (The Regents of the University of California, priority 2012, dated 2018).
